Results as given in patent US11299493B2, “Heterocyclic compounds and uses thereof” (NUVATION BIO INC., priority 2017, dated 2022).
Where two headings read alike, the source gives them in different places.

Legend:
A427 cells = assay: Cytotoxicity assay (resazurin) in A427 cells; format: cell-based; details: read-out: Cell Viability IC50 A427
Experimental: Cells were allowed to grow at 37° C. for 24 hr in 5% CO2 environment (culture conditions) in a Nuaire incubator (humidified). Serially diluted test compounds (100 μL) within the desired testing concentration ranges were added to the culture plate were further incubated in culture conditions for 72 hr and 96 hr for A427 and A549 respectively. The experiment was terminated at the designated incubation time by replacing the medium with 100 μL of 1 mM of resazurin (R7017; Sigma) prepared in respective culture medium, and the plates were further incubated in culture conditions for 4-6 hr. Fluorescence was recorded using a multimodal plate reader (Biotek Synergy Neo) at an excitation wavelength of 535 nm and emission wavelength of 590 nm to obtain relative fluorescence units. Data analysis was done by subtracting the background fluorescence (only medium blank) value from each reading and then normalizing with the vehicle control (DMSO treated cells) to obtain percent survival/proliferation. Percent survival was then subtracted by 100 to get the percent inhibition of proliferation which was used to calculate IC50 values.

WEE1 kinase enzyme = WEE1 kinase enzyme (Homo sapiens (Human), UniProt P30291); assay: WEE1 IC50 determination, LanthaScreen Terbium Labeled TR-FRET kinase assay; format: biochemical; details: WEE1 enzyme 1 nM, ATP 10 μM, 1 h
Chain of WEE1 kinase enzyme (P30291 whole entry): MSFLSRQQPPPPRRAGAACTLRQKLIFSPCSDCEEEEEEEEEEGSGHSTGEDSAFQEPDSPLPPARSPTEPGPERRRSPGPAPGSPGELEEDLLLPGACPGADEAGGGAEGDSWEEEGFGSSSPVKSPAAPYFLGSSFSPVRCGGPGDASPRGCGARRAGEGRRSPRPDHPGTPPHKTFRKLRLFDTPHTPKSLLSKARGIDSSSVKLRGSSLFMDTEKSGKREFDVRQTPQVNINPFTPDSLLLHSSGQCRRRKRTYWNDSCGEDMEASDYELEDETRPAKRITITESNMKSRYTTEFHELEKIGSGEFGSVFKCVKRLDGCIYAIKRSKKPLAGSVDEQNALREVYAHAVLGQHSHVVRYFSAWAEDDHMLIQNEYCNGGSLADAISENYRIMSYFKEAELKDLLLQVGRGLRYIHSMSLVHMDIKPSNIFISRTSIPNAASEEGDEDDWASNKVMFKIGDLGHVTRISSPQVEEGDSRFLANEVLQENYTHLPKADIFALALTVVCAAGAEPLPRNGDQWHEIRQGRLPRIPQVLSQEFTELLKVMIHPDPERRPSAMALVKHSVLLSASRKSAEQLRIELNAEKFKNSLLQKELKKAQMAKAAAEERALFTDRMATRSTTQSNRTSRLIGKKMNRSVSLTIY
Experimental: IC50 values of compounds against WEE1 kinase enzyme were determined by LanthaScreen™ Terbium Labeled TR-FRET assay. […] After 1 h, […] stop solution containing Terbium labeled antibody (4 nM) (#PV3529, Invitrogen, Life Technologies Grand Island, N.Y.) and EDTA (#E5134, Sigma, St-Louis, Mo.) (20 mM) in TR-FRET dilution buffer (#PV3574, Invitrogen, Life Technologies Grand Island, N.Y.) was added. Readings were taken in a Synergy Neo Plate reader (BioTek, Winooski) at single excitation of 340 nm and Dual emission at 495 nm and 520 nm respectively.
The % activity of test samples was calculated as (Sample−Min)*100/(Max−Min). [Max: DMSO control, complete reaction with enzyme & DMSO and Min: No enzyme & DMSO].

[1] = Homo sapiens, A-427, 72 h, A427, 72 hr

Compound | IC50 (WEE1 kinase enzyme) [nM] | IC50 (A427 cells; [1]) [nM] | IC50 (A427 cells; Homo sapiens, A-427, A427, 72 hr) [nM] | IC50 (A427 cells; A427, 72 hr) [nM]
CCn1c(=O)c2cnc(Nc3ccc4c(c3)CNCC4)nc2n1-c1cccc(OC)n1 [Example 1.18] | 25 | 7060 |  | 
CCn1c(=O)c2cnc(Nc3ccc4c(c3)CCNC4)nc2n1-c1cccc(OC)n1 [Example 1.23] | 40 | 3210 |  | 
CC(C)(O)c1cccc(-n2c3nc(Nc4ccc5c(c4)CCNC5)ncc3c(=O)n2C2CC2)n1 [Example 1.24] | 23 | 6030 |  | 
CCn1c(=O)c2cnc(Nc3ccc4c(c3)CNCC4)nc2n1-c1cccc(C(=O)NC)n1 [Example 1.25] | 99 | > 30000 |  | 
CCn1c(=O)c2cnc(Nc3ccc4c(c3)CNCC4)nc2n1-c1cccc(NC)n1 [Example 1.27] | 10 | 4140 |  | 
CCn1c(=O)c2cnc(Nc3ccc4c(c3)CNCC4)nc2n1-c1cccc(N2CCCC2=O)n1 [Example 1.31] | 5 | 1320 |  | 
CCn1c(=O)c2cnc(Nc3ccc4c(c3)CNCC4)nc2n1-c1cccc(C(F)(F)F)n1 [Example 1.41] | 44 | 5120 |  | 
CCn1c(=O)c2cnc(Nc3ccc4c(c3)CNCC4)nc2n1-c1cccc(NC(C)=O)n1 [Example 1.47] | 5 | 3020 |  | 
CC(C)n1c(=O)c2cnc(Nc3ccc4c(c3)CCNC4)nc2n1-c1cccc(C(C)(C)O)n1 [Example 1.69] | 11 | 485 |  | 
CCn1c(=O)c2cnc(Nc3ccc4c(c3)CNCC43CC3)nc2n1-c1cccc(C(C)(C)O)n1 [Example 1.70] | 15 | 640 |  | 
CCn1c(=O)c2cnc(Nc3cccc4c3CCNC4)nc2n1-c1cccc(C(C)(C)O)n1 [Example 1.125] | > 5000 | > 30000 |  | 
CCn1c(=O)c2cnc(Nc3ccc4c(c3)CNCC4)nc2n1-c1cccc(C(C)(C)C)n1 [Example 1.126] | < 1 | 275 |  | 
CCn1c(=O)c2cnc(Nc3cnc4c(c3)CNCC4)nc2n1-c1cccc(C(C)(C)O)n1 [Example 1.127] | 58 | > 23000 |  | 
CCn1c(=O)c2cnc(Nc3ccc4c(c3)CN(CCO)CC4)nc2n1-c1cccc(C(C)(C)O)n1 [Example 1.128] | 6 | 1550 |  | 
CCn1c(=O)c2cnc(Nc3ccc4c(c3)CN(CC(=O)N(C)C)CC4)nc2n1-c1cccc(C(C)(C)O)n1 [Example 1.129] | 6 | 865 |  | 
CCn1c(=O)c2cnc(Nc3ccc4c(c3)CNCC4)nc2n1-c1ccccn1 [Example 1.130] | 18 | 9070 |  | 
CCn1c(=O)c2cnc(Nc3ccc4c(c3)CCNC4)nc2n1-c1cccc(C(C)(C)C)n1 [Example 1.131] | 0.6 | 285 |  | 
CCn1c(=O)c2cnc(Nc3ccc4c(c3)CNC4)nc2n1-c1cccc(C(C)(C)O)n1 [Example 1.132] | 4 |  | 1680 | 
CCn1c(=O)c2cnc(Nc3ccc4c(c3)CC(N(C)C)C4)nc2n1-c1cccc(C(C)(C)O)n1 (stereo not drawn) [Example 1.133] | 6 | 583 |  | 
CCn1c(=O)c2cnc(Nc3ccc4c(c3)CNCC4)nc2n1-c1ccnc(C(C)(C)C)c1 [Example 1.134] | 9 | 820 |  | 
CCn1c(=O)c2cnc(Nc3ccc4c(c3)CC(N(C)C)CC4)nc2n1-c1cccc(C(C)(C)O)n1 (stereo not drawn) [Example 1.135] | 20 | 440 |  | 
CCn1c(=O)c2cnc(Nc3ccc4c(c3)CCNC4)nc2n1-c1ccnc(C(C)(C)C)c1 [Example 1.136] | 7 | 1090 |  | 
CC(C)n1c(=O)c2cnc(Nc3ccc4c(c3)CNCC4)nc2n1-c1ccnc(C(C)(C)C)c1 [Example 1.137] | 4 | 415 |  | 
CC(C)n1c(=O)c2cnc(Nc3ccc4c(c3)CNCC4)cc2n1-c1ccnc(C(C)(C)C)c1 [Example 2.744] |  | 10400 |  | 

Now from value to compound, other results behind:

IC50 (WEE1 kinase enzyme) [nM] | Compound | IC50 (A427 cells; [1]) [nM] | IC50 (A427 cells; Homo sapiens, A-427, A427, 72 hr) [nM] | IC50 (A427 cells; A427, 72 hr) [nM]
4 | CC(C)n1c(=O)c2cnc(Nc3ccc4c(c3)CNCC4)nc2n1-c1cccc(C(C)(C)F)n1 [Example 1.139] | 355 |  | 
24 | CCn1c(=O)c2cnc(Nc3cnc4c(c3)CNCC4)nc2n1-c1cccc(C(C)(C)C)n1 [Example 1.141] | 2970 |  | 
4 | CCn1c(=O)c2cnc(Nc3ccc4c(c3)CNC4)nc2n1-c1cccc(C(C)(C)C)n1 [Example 1.142] | 390 |  | 
0.6 | CC(C)n1c(=O)c2cnc(Nc3ccc4c(c3)CNCC4)nc2n1-c1cccc(C(C)(C)C)n1 [Example 1.144] | 260 |  | 
3 | CC(C)n1c(=O)c2cnc(Nc3ccc4c(c3)CCNC4)nc2n1-c1cccc(C(C)(C)C)n1 [Example 1.145] | 255 |  | 
7 | CC(C)(C)c1cccc(-n2c3nc(Nc4ccc5c(c4)CCNC5)ncc3c(=O)n2C2CC2)n1 [Example 1.147] |  |  | 370
2 | CC(C)n1c(=O)c2cnc(Nc3ccc4c(c3)CNCC4)nc2n1-c1cccc(C2CC2)n1 [Example 1.148] | 1080 |  | 
3 | CC(C)n1c(=O)c2cnc(Nc3ccc4c(c3)CCNC4)nc2n1-c1cccc(C2CC2)n1 [Example 1.149] | 1130 |  | 
13 | CC(n1c(=O)c2cnc(Nc3ccc4c(c3)CNCC4)nc2n1-c1cccc(C(C)(C)C)n1)C(F)(F)F (stereo not drawn) [Example 1.150] | 3000 |  | 
2540 | CC(C)(C)c1cccc(-n2c3nc(Nc4ccc5c(c4)CNCC5)ncc3c(=O)n2C(C)(C)C)n1 [Example 1.151] | 3380 |  | 
< 1 | CC(C)(C)c1cccc(-n2c3nc(Nc4ccc5c(c4)CNCC5)ncc3c(=O)n2CC(F)(F)F)n1 [Example 1.152] | 1020 |  | 
16 | CC(CO)n1c(=O)c2cnc(Nc3ccc4c(c3)CNCC4)nc2n1-c1cccc(C(C)(C)C)n1 (stereo not drawn) [Example 1.153] | 2540 |  | 
8 | COCCn1c(=O)c2cnc(Nc3ccc4c(c3)CNCC4)nc2n1-c1cccc(C(C)(C)C)n1 [Example 1.154] | 2370 |  | 
2 | CC(C)n1c(=O)c2cnc(Nc3ccc4c(c3)CCNC4)nc2n1-c1cccc(C(C)(C)C)c1 [Example 1.155] | 1980 |  | 
1 | CC(C)n1c(=O)c2cnc(Nc3ccc4c(c3)CNCC4)nc2n1-c1cccc(C(C)(C)C)c1 [Example 1.156] | 1770 |  | 
5 | C=CCn1c(=O)c2cnc(Nc3ccc4c(c3)CCNC4)nc2n1-c1ccnc(C(C)(C)C)c1 [Example 1.157] | 460 |  | 
4 | C=CCn1c(=O)c2cnc(Nc3ccc4c(c3)CNCC4)nc2n1-c1ccnc(C(C)(C)C)c1 [Example 1.158] | 200 |  | 
30 | CC(C)(C)c1cc(-n2c3nc(Nc4ccc5c(c4)CCNC5)ncc3c(=O)n2C2CC2)ccn1 [Example 1.159] | 3320 |  | 
48 | CC(C)n1c(=O)c2cnc(Nc3ccc4c(c3)CCNC4)nc2n1-c1ccn(C(C)(C)C)n1 [Example 2.454] |  |  | 
153 | CC(C)(F)c1cc(-n2c3nc(Nc4ccc5c(c4)CCNC5(C)C)ncc3c(=O)n2C2CC2)ccn1 [Example 2.555] |  |  | 
25 | CC(C)(C)c1cc(-n2c3nc(Nc4ccc5c(c4)CNCC5(C)C)ncc3c(=O)n2C2CC2)ccn1 [Example 2.600] |  |  | 
179 | CC(C)n1c(=O)c2cnc(Nc3ccc4c(c3)CCNC4)cc2n1-c1ccnc(C(C)(C)C)c1 [Example 2.732] |  |  | 
